We go through 18 compounds from patent US8551999B2, “Heterocyclic compound and pharmaceutical composition thereof” (Otsuka Pharmaceutical Co., Ltd., priority 2007, dated 2013).

A word on the melting point: it is the temperature of the solid-liquid transition.

With `Br.Br.Cc1cc(Oc2ccc3c(c2)cc(C(=O)N2CCN(Cc4ccncc4)CC2)n3C)ncc1NC(=O)c1ccc(C(F)(F)F)cc1` [Example 362, N-{4-Methyl-6-[1-methyl-2-(4-pyridin-4-ylmethylpiperazine-1-carbonyl)-1H-indol-5-yloxy]pyridin-3-yl}-4-trifluoromethyl-benzamide dihydrobromide], the melting point is 228 to 232 °C (dec.).
To `Br.CCOc1ccc(CN2CCN(C(=O)c3cc4cc(Oc5ccc(NC(=O)c6ccc(C(F)(F)F)cc6)cn5)ccc4n3C)CC2)cc1` [Example 363, N-(6-{2-[4-(4-Ethoxybenzyl)piperazine-1-carbonyl]-1-methyl-1H-indol-5-yloxy}pyridin-3-yl)-4-trifluoromethylbenzamide hydrobromide] belongs 231 to 234 °C; to `Br.CCOc1ccc(CN2CCN(C(=O)c3cc4cc(Oc5cc(C)c(NC(=O)c6ccc(Cl)c(Cl)c6)cn5)ccc4n3C)CC2)cc1` [Example 364, 3,4-Dichloro-N-(6-{2-[4-(4-ethoxybenzyl)piperazine-1-carbonyl]-1-methyl-1H-indol-5-yloxy}-4-methylpyridin-3-yl)benzamide hydrobromide], 197 to 199 °C; to `Br.CCOc1ccc(CN2CCN(C(=O)c3cc4cc(Oc5cc(C)c(N(C)C(=O)c6ccc(C(F)(F)F)cc6)cn5)ccc4n3C)CC2)cc1` [Example 365, N-(6-{2-[4-(4-Ethoxybenzyl)piperazine-1-carbonyl]-1-methyl-1H-indol-5-yloxy}-4-methylpyridin-3-yl)-N-methyl-4-trifluoromethyl-benzamide hydrobromide], 163 to 166 °C.
Turning to `Br.CCOc1ccc(CN2CCN(C(=O)c3cc4cc(Oc5cc(C)c(N(C)C(=O)c6ccc(Cl)c(Cl)c6)cn5)ccc4n3C)CC2)cc1` [Example 366, 3,4-Dichloro-N-(6-{2-[4-(4-ethoxybenzyl)piperazine-1-carbonyl]-1-methyl-1H-indol-5-yloxy}-4-methylpyridin-3-yl)-N-methylbenzamide hydrobromide], the melting point was 201 to 204 °C.
To `Br.CCCOc1ccc(CN2CCN(C(=O)c3cc4cc(Oc5ccc(NC(=O)c6ccc(Cl)c(Cl)c6)cn5)ccc4n3C)CC2)cc1` [Example 369, 3,4-Dichloro-N-(6-{1-methyl-2-[4-(4-propoxybenzyl)piperazine-1-carbonyl]-1H-indol-5-yloxy}pyridin-3-yl)benzamide hydrobromide] belongs 249 to 252 °C (dec.).
The figure for `CCCOc1ccc(CN2CCN(C(=O)c3cc4cc(Oc5ccc(N(C)C(=O)c6ccc(Cl)c(Cl)c6)cn5)ccc4n3C)CC2)cc1.O=C(O)/C=C\C(=O)O` [Example 370, 3,4-Dichloro-N-methyl-N-(6-{1-methyl-2-[4-(4-propoxybenzyl)-piperazine-1-carbonyl]-1H-indol-5-yloxy}pyridin-3-yl)benzamide maleate] is 163 to 164 °C; for `CCOc1ccc(CN2CCN(C(=O)c3cc4cc(Oc5ccc(N(C)C(=O)c6ccc(Cl)c(Cl)c6)c(C)n5)ccc4n3C)CC2)cc1.O=C(O)/C=C\C(=O)O` [Example 372, 3,4-Dichloro-N-(6-{2-[4-(4-ethoxybenzyl)piperazine-1-carbonyl]-1-methyl-1H-indol-5-yloxy}-2-methylpyridin-3-yl)-N-methylbenzamide maleate] it is 131 to 132 °C.
`Br.CCOc1cccc(CN2CCN(C(=O)c3cc4cc(Oc5ccc(NC(=O)c6ccc(Cl)c(Cl)c6)cn5)ccc4n3C)CC2)c1` [Example 373, 3,4-Dichloro-N-(6-{2-[4-(3-ethoxybenzyl)piperazine-1-carbonyl]-1-methyl-1H-indol-5-yloxy}pyridin-3-yl)benzamide hydrobromide]: the melting point lay in the range of 225 to 227 °C.
Compound `CCOc1cccc(CN2CCN(C(=O)c3cc4cc(Oc5ccc(N(C)C(=O)c6ccc(Cl)c(Cl)c6)cn5)ccc4n3C)CC2)c1.O=C(O)/C=C\C(=O)O` [Example 374, 3,4-Dichloro-N-(6-{2-[4-(3-ethoxybenzyl)piperazine-1-carbonyl]-1-methyl-1H-indol-5-yloxy}pyridin-3-yl)-N-methylbenzamide maleate] gave a melting point of 99 to 100 °C.
The figure for `Br.COCc1ccc(CN2CCN(C(=O)c3cc4cc(Oc5ccc(NC(=O)c6ccc(Cl)c(Cl)c6)cn5)ccc4n3C)CC2)cc1` [Example 375, 3,4-Dichloro-N-(6-{2-[4-(4-methoxymethylbenzyl)piperazine-1-carbonyl]-1-methyl-1H-indol-5-yloxy}pyridin-3-yl)benzamide hydrobromide] is 244 to 249 °C (dec.); for `COCc1ccc(CN2CCN(C(=O)c3cc4cc(Oc5ccc(N(C)C(=O)c6ccc(Cl)c(Cl)c6)cn5)ccc4n3C)CC2)cc1.O=C(O)/C=C\C(=O)O` [Example 376, 3,4-Dichloro-N-(6-{2-[4-(4-methoxymethylbenzyl)piperazine-1-carbonyl]-1-methyl-1H-indol-5-yloxy}pyridin-3-yl)-N-methyl-benzamide maleate] it is 100 to 101 °C; for `Br.Br.CCOc1ccc(CN2CCN(C(=O)c3cc4cc(Oc5ccc(NC(=O)c6ccc(Cl)c(Cl)c6)cn5)ccc4n3C)CC2)nc1` [Example 378, 3,4-Dichloro-N-(6-{2-[4-(5-ethoxypyridin-2-ylmethyl)piperazine-1-carbonyl]-1-methyl-1H-indol-5-yloxy}pyridin-3-yl)benzamide dihydrobromide] it is 218 to 220 °C.
To `COc1ccc(CN2CCN(C(=O)c3cc4cc(Oc5ncc(N(C)C(=O)c6ccc(C(F)(F)F)cc6)cn5)ccc4n3C)CC2)cc1.O=C(O)/C=C\C(=O)O` [Example 381, N-(2-{2-[4-(4-Methoxybenzyl)piperazine-1-carbonyl]-1-methyl-1H-indol-5-yloxy}pyrimidin-5-yl)-N-methyl-4-trifluoromethylbenzamide maleate] belongs 160 to 161 °C; to `Cn1c(C(=O)N2CCN(Cc3ccccn3)CC2)cc2cc(Oc3ncc(NC(=O)c4ccc(C(F)(F)F)cc4)cn3)ccc21` [Example 382, N-{2-[1-Methyl-2-(4-pyridin-2-ylmethylpiperazine-1-carbonyl)-1H-indol-5-yloxy]pyrimidin-5-yl}-4-trifluoromethylbenzamide], 181 to 182 °C.
As for `CN(C(=O)c1ccc(C(F)(F)F)cc1)c1cnc(Oc2ccc3c(c2)cc(C(=O)N2CCN(Cc4ccc(C#N)cc4)CC2)n3C)nc1.O=C(O)/C=C\C(=O)O` [Example 383, N-(2-{2-[4-(4-Cyanobenzyl)piperazine-1-carbonyl]-1-methyl-1H-indol-5-yloxy}pyrimidin-5-yl)-N-methyl-4-trifluoromethylbenzamide maleate], the melting point was 154 to 156 °C.
The figure for `CCOc1ccc(CN2CCN(C(=O)c3cc4cc(Oc5ncc(NC(=O)c6ccc(Cl)c(Cl)c6)cn5)ccc4n3C)CC2)cc1` [Example 384, 3,4-Dichloro-N-(2-{2-[4-(4-ethoxybenzyl)piperazine-1-carbonyl]-1-methyl-1H-indol-5-yloxy}pyrimidin-5-yl)benzamide] is 156 to 157 °C; for `Cn1c(C(=O)N2CCN(Cc3ccccn3)CC2)cc2cc(Oc3ncc(NC(=O)c4ccc(Cl)c(Cl)c4)cn3)ccc21` [Example 385, 3,4-Dichloro-N-{2-[1-methyl-2-(4-pyridin-2-ylmethylpiperazine-1-carbonyl)-1H-indol-5-yloxy]pyrimidin-5-yl}benzamide] it is 161 to 163 °C.
